In paper PMC6836419, “In vitro and in silico anti-dengue activity of compounds obtained from Psidium guajava through bioprospecting” (BMC Complementary and Alternative Medicine, 2019):
Converted amounts (≈) assume the structure as drawn. Read-outs that look alike come from different tables or passages of the source.

What was measured:
DENV-2 = conditions: cited from earlier work
DENV-2/NG [1] = test: Antiviral effect after virus cell entry (post-treatment strategy); assay type: cell-based; conditions: for inhibition at 50 µg/mL: Dengue virus, DENV2, Vero, 48 h; for Viral inhibition percentage, post-treatment strategy: VERO cells infected with DENV-2/NG MOI = 1, then compounds 50 μg/mL for 48 h
Procedure: (§1) A total of 2.5 × 10^4 cells/well were seeded in 96-well plates. The cells were inoculated the following day with serial dilutions (10^− 1 to 10^− 6) of the supernatants from the EC50 experiments for 2 h. Next, the inoculum were removed, and 1.5% carboxymethylcellulose (Sigma-Aldrich) prepared in DMEM (Gibco®) supplemented with 2% FCS (Gibco®) was added, followed by incubation at 37 °C in a 5% CO 2 atmosphere. On the third day, the cells were fixed with a methanol-acetone (1:1) solution for 10 min, washed three times with PBS, and permeabilized with 0.1% Triton X-100 for 30 min, after which nonspecific site blocking was performed with 10% FBS in PBS. Then, DENV anti-envelope monoclonal antibody (mAb) was diluted 1:500 with PBS containing 10% FCS (Gibco®) was added, followed by incubation for 1 h at 37 °C. After washing with PBS, the plates were incubated for 30 min with an anti-mouse IgG secondary antibody conjugated to peroxidase. Finally, the reactions were stained with 3-amino-9-ethylcarbazole (AEC, Sigma-Aldrich), and the number of foci in each well were counted.
A total of 2.5 × 10^4 VERO cells were seeded in 24-well plates for 24 h, and a viral inoculum (DENV-2/NG at an MOI = 1) was then added and incubated for 2 h. Subsequently, the inoculum was removed, and the fractions (100 μg/mL) or characterized compounds (50 μg/mL) were added and incubated with the cells for an additional 48 h (post-treatment strategy). Next, the supernatants were collected and stored at − 70 °C until further processing via the multiwell plate focus assay. For each fraction or compound, two independent experiments were performed each with two replicates (n = 4). Suramin served as the positive control for viral inhibition.
(§2) Fig. 4 Antiviral effects of the compounds derived from the Pg- YP-I-22C fraction on some steps of the DENV replication cycle. The cells were treated with the compounds for 48 h and then infected with DENV (MOI = 1). This infection strategy (pre-treatment) is represented by the dark bars. In addition, independent cell cultures were infected with DENV (MOI = 1) and then treated with the compounds (post-treatment strategy; indicated by clear bars). The error bars correspond to the SEM. The asterisks indicate cases with statistically significant differences (Student’s t-test; p < 0.05) in relation to the control without treatment

[2] = MTT cytotoxicity (CC50) in VERO cells; assay type: cell-based; conditions: African green monkey (Cercopithecus aethiops)
Procedure: The CC50 was determined via the 3-(4,5-dimethyl-2-thiazolyl)-2,5-diphenyl-2H-tetrazolium bromide) (MTT, Sigma-Aldrich) method. For this, 2.5 × 10^4 VERO cells were seeded in 96-well plates for 24 h. […] After the incubation period, an MTT solution (0.5 mg/mL) was added to the cultures, which were then incubated for an additional 3 h at 37 °C. Finally, dimethyl sulfoxide was added, and the absorbance was read at 450 nm in a Bio-Rad Benchmark® microplate reader. Cultures without extract, fractions, or compounds were processed as positive controls for viability. […] Each experimental condition was tested in triplicate in two independent experiments (n = 6).
To determine the CC50 and EC50, a regression analysis was performed with Probit Software. The SI of each molecule was determined from the relationship between the CC50 and EC50, using the formula SI = CC50/EC50. To compare the number of infectious viral particles released between the cells treated with each fraction or compound (for both the pre- and post-treatment strategies) and the untreated cells, Student’s t-test was used. […] Each experimental condition was tested in triplicate in two independent experiments (n = 6) to guaranty the statistical analysis and the figures show the average of those experiments.

DENV-2/NG [3] = test: EC50 determination: VERO cells infected with DENV-2/NG in the presence of treatment, multiwell plate focus assay; assay type: cell-based; conditions: for EC50: Dengue virus, DENV2, Vero, read-out: Effective concentration 50% (EC50); for Selectivity index (SI): SI = CC50/EC50, VERO cells infected with DENV-2/NG
Procedure: The SI of each ethanolic extract, fraction, or compound was calculated from the relationship between the cytotoxic concentration 50% (CC50) and effective concentration 50% (EC50). The CC50 was determined via the 3-(4,5-dimethyl-2-thiazolyl)-2,5-diphenyl-2H-tetrazolium bromide) (MTT, Sigma-Aldrich) method. For this, 2.5 × 10^4 VERO cells were seeded in 96-well plates for 24 h. Subsequently, serial dilutions of the ethanolic extracts (7.8 μg/mL to 1000 μg/mL), fractions (6.25 to 400 μg/mL), and characterized compounds (6.25 to 400 μg/mL) were performed and incubated with the cells for 48 h. After the incubation period, an MTT solution (0.5 mg/mL) was added to the cultures, which were then incubated for an additional 3 h at 37 °C. Finally, dimethyl sulfoxide was added, and the absorbance was read at 450 nm in a Bio-Rad Benchmark® microplate reader. Cultures without extract, fractions, or compounds were processed as positive controls for viability. The CC50 was calculated as the extract concentration that reduced cell viability by 50% using regression analysis (Probit software). Each experimental condition was tested in triplicate in two independent experiments (n = 6). To calculate the EC50, 2.5 × 10^4 VERO cells were seeded in 96-well plates for 24 h. At 24 h, serial dilutions of each ethanolic extract (7.8 μg/mL to 1000 μg/mL), fraction (6.25 to 400 μg/mL), and characterized compound (6.25 to 400 μg/mL) were mixed with the DENV-2/NG strain (at a multiplicity of infection (MOI = 1) and added to the cell monolayers for 2 h. At 2 h post-inoculation (hpi), the mixtures were removed, and the same serial dilutions of the extracts, fractions, or compounds were added again and incubated for 24 h. Finally, the supernatants were collected and stored at − 70 °C until performing the multiwell plate focus assay.
as §1
To determine the CC50 and EC50, a regression analysis was performed with Probit Software. The SI of each molecule was determined from the relationship between the CC50 and EC50, using the formula SI = CC50/EC50. To compare the number of infectious viral particles released between the cells treated with each fraction or compound (for both the pre- and post-treatment strategies) and the untreated cells, Student’s t-test was used. All statistical analyses were performed using the Prism® 7.01 for Windows™ package (GraphPad Software, San Diego, CA), considering differences statistically significant at p < 0.05 in all cases. Each experimental condition was tested in triplicate in two independent experiments (n = 6) to guaranty the statistical analysis and the figures show the average of those experiments.

DENV-2/NG [4] = test: Antiviral effect on virus cell entry (pre-treatment strategy); assay type: cell-based; conditions: for inhibition at 50 µg/mL: Dengue virus, DENV2, Vero
Procedure: as §1
A total of 2.5 × 10^4 VERO cells were seeded in 24-well plates for 24 h, and the fractions (100 μg/mL) or characterized compounds (50 μg/mL) were then added and incubated with the cells for an additional 24 h (pre-treatment strategy). Subsequently, treatment was withdrawn, and a viral inoculum (DENV-2/NG at an MOI = 1) was added and incubated for 2 h. Subsequently, the virus was removed, and fresh medium was added for an additional 48 h, after which the supernatants were collected and stored at − 70 °C until further processing via the multiwell plate focus assay. For each fraction and compound, two independent experiments were performed each with two replicates (n = 4). Heparin (Sigma-Aldrich) served as the positive control for viral inhibition.
as §2

[5] = read-out: Viral inhibition percentage, post-treatment strategy, VERO cells infected with DENV-2/NG MOI = 1, then compounds 50 μg/mL for 48 h, plate focus assay
[6] = VERO cells, 48 h incubation, MTT, unit given, not in Table 1, read-out: Cytotoxic concentration 50% (CC50)
[7] = read-out: Viral inhibition percentage, pre-treatment strategy, compounds 50 μg/mL added to VERO cells before infection with DENV-2/NG MOI = 1, plate focus assay

| Structure (SMILES) | inhibition at 50 µg/mL (DENV-2/NG [1]; [5]) [%] | CC50 at 48 h [2, 6] [µg/mL] | EC50 (DENV-2/NG [3]) [µg/mL] | Selectivity index (SI) (DENV-2/NG [3]) | other results |
| --- | --- | --- | --- | --- | --- |
| CC[C@H]1CC2CN3CCc4c([nH]c5ccc(OC)cc45)[C@](C(=O)OC)(C2)[C@H]13 (stereo in doubt) [voacangine] | – | – | – | – | Inhibition of infection in vitro by plant-derived compounds (DENV-2): greater than 50% |
| Oc1cc(O)c2c(c1)OC(c1ccc(O)c(O)c1)C(O)C2 (stereo not drawn) [Catechin, catechin] | 91.8 | 833 (≈ 2870 µM) | 33.7 | 24.8 | Viral inhibition percentage, post-treatment strategy (DENV-2/NG [1]; plate focus assay): greater than 90%; inhibition at 50 µg/mL (DENV-2/NG [4]; [7]): 100%; Viral inhibition percentage, pre-treatment strategy (DENV-2/NG [4]; compounds 50 μg/mL added to VERO cells before infection with DENV-2/NG MOI = 1, plate focus assay): greater than 90% |
| O=C(O)c1cc(O)c(O)c(O)c1 [Gallic Acid, gallic acid] | 67.3 | 543 (≈ 3190 µM) | 25.8 | 21.1 | inhibition at 50 µg/mL (DENV-2/NG [4]; [7]): 52.6% |
| C[C@@H]1O[C@@H](O[C@H]2[C@H](Oc3cc(O)c4c(c3)O[C@H](c3ccc(O)cc3)CC4=O)O[C@H](CO)[C@@H](O)[C@@H]2O)[C@H](O)[C@H](O)[C@H]1O [Naringin, naringin] | 64.5 | 647 (≈ 1110 µM) | 47.9 | 13.5 | – |
| O=c1c(O)c(-c2ccc(O)c(O)c2)oc2cc(O)cc(O)c12 [Quercetin, quercetin] | – | – | 19.2 | 34.3 | inhibition at 50 µg/mL (DENV-2/NG [1]; read-out: Viral inhibition percentage, post-treatment strategy): 100%; CC50 at 48 h [2]: 660 µg/mL (≈ 2180 µM); inhibition at 50 µg/mL (DENV-2/NG [4]; read-out: Viral inhibition percentage, pre-treatment strategy): 50% |
| Cc1ccc(C(=O)Nc2ccc(S(=O)(=O)O)c3cc(S(=O)(=O)O)cc(S(=O)(=O)O)c23)cc1NC(=O)c1cccc(NC(=O)Nc2cccc(C(=O)Nc3cc(C(=O)Nc4ccc(S(=O)(=O)O)c5cc(S(=O)(=O)O)cc(S(=O)(=O)O)c45)ccc3C)c2)c1 [SURAMIN, suramin, reference compound] | – | – | – | – | Viral inhibition percentage, post-treatment strategy (DENV-2/NG [1]; plate focus assay): better inhibition |
| C=C(C)[C@@H]1CC[C@]2(C)CC[C@]3(C)[C@H](CC[C@@H]4[C@@]5(C)CC[C@H](O)C(C)(C)[C@@H]5CC[C@]43C)[C@@H]12 [lupeol] | – | – | – | – | Inhibition of infection in vitro by plant-derived compounds (DENV-2): greater than 50% |
